Like-named read-outs stand apart in the source and are kept apart here.
Experiments:
HCV = HCV antiviral activity in Huh cells; type: cell-based; conditions: Hepatitis C virus, cell line Huh
[1] = system: human foreskin fibroblast cells; assay: Neutral red cytotoxicity assay in human foreskin fibroblast cells; conditions: read-out: VACV CC50, μm, parallel to VACV assay (second printing of Table 4)
Ebola = assay: microbe, parasite or virus in culture; type: cell-based, ebola virus; conditions: Zaire ebolavirus
HBV = HBV antiviral activity in 2.2.15 cells; type: cell-based; conditions: Hepatitis B virus, cell line 2.2.15
HHV-8 = HHV-8 antiviral activity in BCBL-1 cells; type: cell-based, human herpes virus 8 (HHV-8); conditions: Homo sapiens, BCBL1; Virus HHV-8, cell line BCBL-1
[2] = Cytotoxicity (CC50) in MRC-5 cells; type: cell-based; conditions: human, cell line MRC5 (HCMV row)
Procedure: Costar 96-well tissue culture plates were seeded with 20,000 MRC-5 cells (ATCC)/well in EMEM (ATCC, Cat 30-2003) containing 2% Hyclone Standard Fetal Bovine Serum (FBS, Cat 5H30088.03) and 1% Hyclone Penicillin and Streptomycin (Cat SV30010). Outer wells were not used to minimize the edge-effect produced by extended incubations. Serial dilutions of test compounds were added to the cells and plates were incubated for 7 days at 37° C. in 5% CO2. After 7 days of incubation 40 μL of Cell Titer 96® Aqueous MTS Reagent (Promega, G111) was added as directed by manufacturer to the 200 iut media in each well and incubated at 37° C. until the untreated-cell controls developed an 490 nm absorbance between 1.1 and 1.8. The final absorbance readings were read using a BioTek Synergy 2, and Gen 5 software (BioTek Instruments, Inc.) was used to calculate the concentration which inhibited MRC-5 cells by 50% (CC50).

in vitro [3] = conditions: human
HHV-6B = assay: DNA hybridization assay for HHV-6B in MOLT-3 cells; type: cell-based, human herpes virus 6 (HHV-6); conditions: Homo sapiens; Virus HHV-6B, cell line MOLT-3
Procedure: Assays for EBV were performed in Akata cells that were induced to undergo a lytic infection with 50 μg/ml of a goat anti-human IgG antibody by standard methods. Experimental compounds were diluted in round bottom 96-well plates to yield concentrations ranging from 20 to 0.016 μM. Akata cells were added to the plates at a concentration of 4×10^4 cells per well and incubated for 72 h. For HHV-6 assays, compounds were serially diluted in 96-well plates then 1×10^4 uninfected HSB-2 or Molt-3 cells were added to each well. Infection was initiated by adding HHV-6A infected HSB-2 cells, or HHV-6B infected Molt-3 cells, at a ratio of approximately 1 infected cell for every 10 uninfected HSB-2 cells or Molt-3 cells respectively and incubated for 7 d at 37° C.
For all assays, 100 µl of denaturation buffer (1.2M NaOH, 4.5M […] NaCl) was added to each well to denature the DNA and a […] aliquot was aspirated through an Immobilon nylon membrane (Millipore, Bedford, Mass.) using a Biodot apparatus (Bio-Rad, Hercules, Calif.). The membranes were then allowed to dry before equilibration in DIG Easy Hyb (Roche Diagnostics, Indianapolis, Ind.) at 56° C. for 30 min. Specific digoxigenin (DIG)-labeled probes were prepared for each virus according to the manufacturer's protocol (Roche Diagnostics). […]

in vitro [4] = conditions: African green monkey
BKV (Gardner strain) = assay: BKV EC50 in Vero cells (qPCR of supernatant BKV DNA); type: cell-based, BK virus (BKV); conditions: Betapolyomavirus hominis
Procedure: Costar 96-well tissue culture plates were seeded with 10,000 Vero cells/well in DMEM containing 2% Hyclone Standard Fetal Bovine Serum (FBS, Cat 5H30088.03) and 1% Hyclone Penicillin and Streptomycin. Outer wells were not used to minimize the edge-effect produced by extended incubations. Cells were inoculated with 115 BKV DNA copies/cell (ATCC, Gardner strain). Serial dilutions of test compounds were added to the cells and plates were incubated for 10 days at 37° C. in 5% CO2. After the 10-day incubation, 50 μL supernatant was mixed with 50 μL 2× lysis buffer that provided a final concentration 0.5 mg/mL protease K, 50 mM KCl, 10 mM Tris-Cl pH 8.0, 2.5 mM MgCl2, 0.45% IGEPAL, and 0.45% Tween-20 dissolved in DEPC-treated water. Each plate was incubated for 2 hours at 55° C. Supernatant BKV DNA was measured by quantitative polymerase chain reaction (qPCR) using forward and reverse BKV PCR primers, and a FAM-labeled probe. Absolute quantitation of viral copy number was performed using a standard curve with dilutions of a BKV DNA amplicon containing sequences homologous to the amplified fragment. The following qPCR amplification conditions were used: 1 cycle at 95° C. for 10 minutes, followed by 45 cycles of 95° C. for 15 seconds and 60° C. for 60 seconds. The qPCR reactions were performed using an Applied Biosystems 7500 real Time PCR System. Gen 5 software (BioTek Instruments, Inc.) was used to calculate the concentration which inhibited the viral DNA levels of BKV-infected Vero cells by 50% (EC50).

[5] = system: HCMV UL54 resistant mutant D542E (HDP-CDV^R); assay: microbe, parasite or virus in culture; type: cell-based, Human Cytomegalovirus (HCMV)

CC(C)CCCCCCCCCCCCCCOCCCOP(=O)(O)COC(CO)Cn1ccc(=O)[nH]c1=O (stereo not shown) [Compound 12]
EC50 (HCV): 0.57 µM | CC50 [1]: > 10 µM | EC50 (Ebola): 1 µM | EC50 (HBV): 3 µM | EC50 (HHV-8): < 0.08 µM | CC50 at 7 days [2]: 50 µM | CC50 (in vitro [3]; CPXV CC50, μM, Human Foreskin Fibroblast Cells, parallel to CPXV assay): > 10 µM | CC50 (in vitro [3]; HCMV CC50, μM): > 50 µM | CC50 (in vitro [3]; HSV-1 CC50, μM): > 50 µM | EC50 (HHV-6B): 4.7 µM | CC50 (in vitro [4]): 29 µM | EC50 (BKV (Gardner strain); BKV in Vero cells (Table 7), read-out: BKV EC50): 1.55 µM | EC50 (BKV (Gardner strain); Virus BKV, cell line Vero (Table 8), read-out: EC50): 2.1 µM | EC50 ([5]; Human betaherpesvirus 5, Fibroblast, read-out: EC50 μM, Virus D542E (HDP-CDV^R), human foreskin fibroblast cells): ~5.41 µM | EC90 ([5]; Human betaherpesvirus 5, Fibroblast, read-out: EC90 μM): > 10 µM | efficacy on UL54 HCMV resistant variants ([5]; effect of mutations in UL54 which reduce efficacy for HDP-CDV): reduced

From patent US20170029451A1, “BRANCHED CHAIN ACYCLIC NUCLEOSIDE PHOSPHONATE ESTERS AND METHODS OF SYNTHESIS AND USES THEREOF” (CHIMERIX, INC., priority 2013, published 2017)
